Data: PubChem BioAssay (NCI)
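Where inhibition never reached the appropriate level, the endpoint shown equals the highest concentration tested. Otherwise, values were interpolated linearly from a five-concentration, 48-hour dose response in 96-well plates. GI50: concentration for 50% inhibition of growth. TGI marks complete inhibition of growth.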

Tests used:
Assay in all cases: growth of human tumour cells (NCI), 48 h
[1] = test system: SN12C renal
[2] = test system: 786-0 renal
[3] = test system: EKVX NSCLC
[4] = test system: UACC-62 melanoma
[5] = test system: HOP-92 NSCLC
[6] = test system: SK-MEL-5 melanoma
[7] = test system: NCI-H23 lung
[8] = test system: OVCAR-5 ovarian
[9] = test system: SF-539 CNS
[10] = test system: DMS 114 small cell lung
[11] = test system: SNB-78 CNS

| SMILES | TGI [1] [µM] | TGI [2] [µM] | TGI [3] [µM] | TGI [4] [µM] | TGI [5] [µM] | TGI [6] [µM] | TGI [7] [µM] | TGI [8] [µM] | TGI [9] [µM] | GI50 [4] [µM] | GI50 [5] [µM] | GI50 [7] [µM] | GI50 [9] [µM] | TGI [10] [µM] | TGI [11] [µM] |
| --- | --- | --- | --- | --- | --- | --- | --- | --- | --- | --- | --- | --- | --- | --- | --- |
| CN(C)CCCN=c1c2ccccc2n(C)c2[nH]c(=O)n(C)c(=O)c12 | > 51.6 | > 64.8 | 28.9 | 24.7 | > 84.7 | 18.4 | 21.7 | 43.7 | 22.4 |  |  |  |  |  |  |
| CCOC(=O)[C@H](CO)Nc1c(O)c2c(c(O)c1Cl)C(=O)C=CC2=O | > 10 | > 10 | > 10 | > 10 | > 10 | > 10 | > 10 | > 10 | > 10 |  |  |  |  |  |  |
| COc1cc(/C=C/c2ccc(S(N)(=O)=O)cc2)cc(OC)c1 | 55.2 | 50.5 | 86 | 30.3 | 43.9 | 29.8 | 49.8 | > 100 | 46.2 | 15.4 | 15 | 22.5 | 18.8 |  |  |
| O=C1NC(Cc2ccccc2)C(=O)N2CCCC12 (stereo unspecified) | > 100 | > 100 | > 100 | > 100 | > 100 | > 100 |  | > 100 | > 100 |  |  |  |  | > 100 | > 100 |
| N/C(=N/N=C/c1cccc(F)c1)NO | > 100 | > 100 | > 100 | 41 | > 100 | 32.4 | > 100 | > 100 | 70 |  |  |  |  | 84.7 | > 100 |
| COc1c(C)c(C/C=C(\C)CCCCO)c(OC)c2ccccc12 | 52.9 | > 100 | > 100 | > 100 | 80.4 | 39.5 | 94.2 | > 100 | > 100 |  |  |  |  |  |  |
| COC(=O)C1=C(C)NC2=C(C(=O)c3ccccc32)C1c1cn[nH]c1-c1ccccc1 (stereo unspecified) | > 100 | > 100 | > 100 | > 100 | > 100 | > 100 | > 100 | > 100 | > 100 |  |  |  |  |  |  |
| CCOC(=O)[C@@]12NN=N[C@@H]1[C@H]1CO[C@H](c3ccccc3)N1C2=O | 26.8 | 30.3 | 28.8 | 21.2 | 8.58 | 24.5 | 32.8 | 31.8 | 25.3 |  |  |  |  |  |  |
| O=C(NCCCc1cn[nH]c(=O)n1)c1cccc2nc3ccccc3nc12 | > 100 | > 100 | > 100 | > 100 | > 100 | > 100 | > 100 | > 100 | > 100 |  |  |  |  |  |  |
| NCCN(CCN)/[N+]([O-])=N/O | > 100 | > 100 | > 100 | > 100 | > 100 | > 100 | > 100 | > 100 | > 100 |  |  |  |  |  |  |
| Cc1ccc(Cc2n[nH]c(=O)n2N2C(=O)c3ccccc3C2=O)cc1 | > 100 | > 100 | > 100 | > 100 | > 100 | > 100 | > 100 | > 100 | > 100 |  |  |  |  |  |  |
| CC(=O)OC12OC(C)(C3C(=O)N(c4ccccc4)C(=O)C31)N(c1ccccc1)C2=O (stereo unspecified) | > 100 | > 100 | > 100 | > 100 | > 100 | > 100 | > 100 | > 100 | > 100 |  |  |  |  |  |  |
| COc1ccc(OC)c(-c2cc(=O)c3cc4c(cc3[nH]2)OCO4)c1 | > 87.5 | > 100 | > 100 | > 100 | 41.3 | 28 | 15.4 | > 100 | 16.2 |  |  |  |  | 13.9 | > 100 |
| COC(=O)CC1NC(=O)C1C(C)(OC)OC (stereo unspecified) | > 100 | > 100 | > 100 | > 100 |  | > 100 | > 100 |  | > 100 |  |  |  |  | > 100 |  |
| COc1cccc(/C=N/NC(=O)CN(C)C)c1O | > 100 | > 100 | > 100 | > 100 | > 100 | > 100 | > 100 | > 100 | > 100 |  |  |  |  |  |  |
| C[C@]12CCC(=O)C=C1CC[C@@H]1C2CC[C@@]2(C)C1CC[C@@H]2OC(=O)C12OC1CCC2=O (stereo partly specified) | 55.5 | 30 | 31.9 | 35.2 | 37.2 | 29.7 | 33.6 | 33.9 | 36.6 |  |  |  |  | 34.3 | 33.9 |
| CCCCc1c2c(nc3c1CCCC3=O)CCCC2 | > 100 | > 100 | > 100 |  |  | > 100 | > 100 |  | > 100 |  |  |  |  | > 100 |  |
